Read-outs that look alike come from different tables or passages of the source.
How the values were obtained:
[1] = Metabolic stability using human liver microsomes; type: in vitro ADME; conditions: 0.25 μM test compound, 2 mM NADPH, 37° C.
Protocol: Deuterated test compounds were supplied by Concert Pharmaceuticals.
A 10 μL aliquot of the 12.5 μM test compound was added to the microsomes and the mixture was pre-warmed for 10 minutes.
Data analysis was performed using Microsoft Excel Software.

[2] = Single Ascending Dose (SAD) study, pharmacokinetics in healthy volunteers; type: in vivo, human; conditions: fasted; for AUC(0-inf) / Cmax / half-life / AUC(0-t) / concentration at 24 h / Vd/F / Tmax: human, in vivo, oral; for AUC(0-inf) / Cmax / half-life / AUC(0-t) / concentration at 24 h / Vd/F / CL/F: arithmetic mean; for AUC(0-t): read-out: AUC0-24hr; for concentration at 24 h: read-out: C24hr; for Vd/F: read-out: Vz/F; for Tmax: median
[3] = Multiple Ascending Dose (MAD) study, pharmacokinetics in healthy volunteers; type: in vivo, human; conditions: for Cmax / half-life / AUC(0-t) / concentration at 12 h / Tmax / concentration at 24 h: human, in vivo, oral; for Cmax / half-life / AUC(0-t) / concentration at 12 h / concentration at 24 h: arithmetic mean; for concentration at 12 h: read-out: C12hr; for Tmax: median; for concentration at 24 h: read-out: C24hr
[4] = Combined SAD and MAD (Phase 1) studies, safety and tolerability; type: in vivo, human
Protocol: In the combined SAD and MAD studies, a total of 77 subjects were dosed (60 received CTP-543; 17 received placebo).

[5] = system: IL-6-stimulated phosphorylated STAT3 (pSTAT3); test: Pharmacodynamic analysis in MAD study: IL-6-stimulated pSTAT3; type: in vivo, human; conditions: all treatment groups
Protocol: (§1) Pharmacodynamic analyses were also performed during the MAD study of the Phase 1 trial to assess the inhibition of IL-6- and IFN-γ-mediated JAK/STAT signaling.

[6] = system: IFN-γ-mediated STAT1 signaling; test: Pharmacodynamic analysis in MAD study: IFN-γ-mediated STAT1 signaling; type: in vivo, human; conditions: disease-relevant immune cell types, all doses evaluated
Protocol: as §1

[7] = single dose 8 mg as phosphate salt, n = 6
[8] = single dose 16 mg as phosphate salt, n = 6
[9] = single dose 32 mg as phosphate salt, n = 6
[10] = single dose 48 mg as phosphate salt, n = 5

t1/2 longer than the t1/2 of non-deuterated ruxolitinib [1]: about 75% | AUC(0-inf) [2, 7]: 589 ng·h/mL | Cmax [2, 7]: 118 ng/mL | half-life [2, 7]: 3.14 h | AUC(0-t) [2, 7]: 584 ng·h/mL | concentration at 24 h [2, 7]: 1.02 ng/mL | Vd/F [2, 7]: 64.1 L | Tmax [2, 7]: 1.25 h | AUC(0-inf) [2, 8]: 1350 ng·h/mL | Cmax [2, 8]: 260 ng/mL | half-life [2, 8]: 3.32 h | AUC(0-t) [2, 8]: 1330 ng·h/mL | concentration at 24 h [2, 8]: 2.77 ng/mL | Vd/F [2, 8]: 61 L | AUC(0-inf) [2, 9]: 2460 ng·h/mL | Cmax [2, 9]: 535 ng/mL | half-life [2, 9]: 3.52 h | AUC(0-t) [2, 9]: 2420 ng·h/mL | concentration at 24 h [2, 9]: 5.6 ng/mL | Vd/F [2, 9]: 68.4 L | Tmax [2, 9]: 1.25 h | AUC(0-inf) [2, 10]: 4160 ng·h/mL | Cmax [2, 10]: 853 ng/mL | half-life [2, 10]: 3.61 h | AUC(0-t) [2, 10]: 4100 ng·h/mL | concentration at 24 h [2, 10]: 9.26 ng/mL | Vd/F [2, 10]: 63.2 L | CL/F [2, 7]: 14.92 L/h | CL/F [2, 8]: 13.87 L/h | CL/F [2, 9]: 13.88 L/h | CL/F [2, 10]: 12.75 L/h | average systemic exposure versus published average reported exposure of 20 mg BID ruxolitinib ([3]; 16 mg BID of Compound (I)): comparable | Cmax ([3]; 8 mg, 8 mg BID, Day 1, n = 4): 160 ng/mL | half-life ([3]; 8 mg, 8 mg BID, Day 1, n = 4): 3.77 h | AUC(0-t) ([3]; 8 mg, 8 mg BID, Day 1, n = 4, read-out: AUCtau/AUC0-12hr): 703 ng·h/mL | concentration at 12 h ([3]; 8 mg, 8 mg BID, Day 1, n = 4): 13.7 ng/mL | Tmax ([3]; 8 mg, 8 mg BID, Day 1, n = 4): 1 h | Cmax ([3]; 8 mg, 8 mg BID, Day 7, n = 4): 183 ng/mL | half-life ([3]; 8 mg, 8 mg BID, Day 7, n = 4): 4.2 h | AUC(0-t) ([3]; 8 mg, 8 mg BID, Day 7, n = 4, read-out: AUCtau/AUC0-12hr): 844 ng·h/mL | concentration at 12 h ([3]; 8 mg, 8 mg BID, Day 7, n = 4): 13.2 ng/mL | Cmax ([3]; 8 mg, 8 mg QD, Day 1, n = 7): 156 ng/mL | half-life ([3]; 8 mg, 8 mg QD, Day 1, n = 7): 3.23 h | AUC(0-t) ([3]; 8 mg, 8 mg QD, Day 1, n = 7, read-out: AUCtau/AUC0-24hr): 704 ng·h/mL | concentration at 24 h ([3]; 8 mg, 8 mg QD, Day 1, n = 7): 0.86 ng/mL | Tmax ([3]; 8 mg, 8 mg QD, Day 1, n = 7): 1 h | Cmax ([3]; 8 mg, 8 mg QD, Day 7, n = 7): 151 ng/mL | half-life ([3]; 8 mg, 8 mg QD, Day 7, n = 7): 3.51 h | AUC(0-t) ([3]; 8 mg, 8 mg QD, Day 7, n = 7, read-out: AUCtau/AUC0-24hr): 668 ng·h/mL | concentration at 24 h ([3]; 8 mg, 8 mg QD, Day 7, n = 7): 1.01 ng/mL | Tmax ([3]; 8 mg, 8 mg QD, Day 7, n = 7): 1 h | Cmax ([3]; 16 mg, 16 mg BID, Day 1, n = 8): 290 ng/mL | half-life ([3]; 16 mg, 16 mg BID, Day 1, n = 8): 2.89 h | AUC(0-t) ([3]; 16 mg, 16 mg BID, Day 1, n = 8, read-out: AUCtau/AUC0-12hr): 1060 ng·h/mL | concentration at 12 h ([3]; 16 mg, 16 mg BID, Day 1, n = 8): 15.3 ng/mL | Tmax ([3]; 16 mg, 16 mg BID, Day 1, n = 8): 1 h | Cmax ([3]; 16 mg, 16 mg BID, Day 7, n = 8): 288 ng/mL | half-life ([3]; 16 mg, 16 mg BID, Day 7, n = 8): 3.53 h | AUC(0-t) ([3]; 16 mg, 16 mg BID, Day 7, n = 8, read-out: AUCtau/AUC0-12hr): 1130 ng·h/mL | concentration at 12 h ([3]; 16 mg, 16 mg BID, Day 7, n = 8): 16.5 ng/mL | Tmax ([3]; 16 mg, 16 mg BID, Day 7, n = 8): 0.75 h | Cmax ([3]; 24 mg, 24 mg QD, Day 1, n = 8): 384 ng/mL | half-life ([3]; 24 mg, 24 mg QD, Day 1, n = 8): 3.14 h | AUC(0-t) ([3]; 24 mg, 24 mg QD, Day 1, n = 8, read-out: AUCtau/AUC0-24hr): 1670 ng·h/mL | concentration at 24 h ([3]; 24 mg, 24 mg QD, Day 1, n = 8): 2.48 ng/mL | Tmax ([3]; 24 mg, 24 mg QD, Day 1, n = 8): 0.5 h | Cmax ([3]; 24 mg, 24 mg QD, Day 7, n = 8): 310 ng/mL | half-life ([3]; 24 mg, 24 mg QD, Day 7, n = 8): 3.5 h | AUC(0-t) ([3]; 24 mg, 24 mg QD, Day 7, n = 8, read-out: AUCtau/AUC0-24hr): 1530 ng·h/mL | concentration at 24 h ([3]; 24 mg, 24 mg QD, Day 7, n = 8): 3.39 ng/mL | Tmax ([3]; 24 mg, 24 mg QD, Day 7, n = 8): 1 h | Cmax ([3]; 32 mg, 32 mg QD, Day 1, n = 8): 509 ng/mL | half-life ([3]; 32 mg, 32 mg QD, Day 1, n = 8): 2.86 h | AUC(0-t) ([3]; 32 mg, 32 mg QD, Day 1, n = 8, read-out: AUCtau/AUC0-24hr): 2220 ng·h/mL | concentration at 24 h ([3]; 32 mg, 32 mg QD, Day 1, n = 8): 2.95 ng/mL | Tmax ([3]; 32 mg, 32 mg QD, Day 1, n = 8): 0.75 h | Cmax ([3]; 32 mg, 32 mg QD, Day 7, n = 8): 492 ng/mL | AUC(0-t) ([3]; 32 mg, 32 mg QD, Day 7, n = 8, read-out: AUCtau/AUC0-24hr): 2100 ng·h/mL | concentration at 24 h ([3]; 32 mg, 32 mg QD, Day 7, n = 8): 5.12 ng/mL | Tmax ([3]; 32 mg, 32 mg QD, Day 7, n = 8): 0.75 h | accumulation with repeated dosing ([3]; repeated dosing, seven consecutive days): did not accumulate
SMILES: [2H]C1([2H])C([C@@H](CC#N)n2cc(-c3ncnc4[nH]ccc34)cn2)C([2H])([2H])C([2H])([2H])C1([2H])[2H] [Compound (I), (R)-3-(4-(7H-pyrrolo[2,3-d]pyrimidin-4-yl)-1H-pyrazol-1-yl)-3-(cyclopentyl-2,2,3,3,4,4,5,5-d8)propanenitrile]
tolerability ([4]; Phase 1 study): generally well tolerated | cases of mild neutropenia ([4]; combined SAD and MAD studies): resolved or trended toward recovery after dosing completion | most common adverse event reported ([4]; combined SAD and MAD studies): headache | severe neutropenia (Grade 3 or 4) ([4]; combined SAD and MAD studies): not observed | withdrawal or dose modification related to CTP-543 ([4]; combined SAD and MAD studies): No withdrawal or dose modification | serious adverse events ([4]; combined SAD and MAD studies, 60 subjects received CTP-543): No serious adverse events were reported | absorption ([4]; combined SAD and MAD studies, oral): rapidly absorbed | IL-6-stimulated phosphorylated STAT3 (pSTAT3) ([5]; MAD study): dose-related reduction | pSTAT3 inhibition at 24 hours post-dose ([5]; 24 hours post-dose): returned to approximate baseline values | IFN-γ-mediated STAT1 signaling [6]: significantly inhibited
